Laboratory results reported in patent US11827628B2, “Compositions and methods for inhibition of the JAK pathway” (Rigel Pharmaceuticals, Inc., priority 2005, dated 2023).

Key:
[1] = system: IL-4 stimulated expression of CD23 in human Ramos B cells (JAK-1 and JAK-3); test: Assay for Ramos B-Cell Line Stimulated with IL-4 (CD23 upregulation, FACS); assay type: cell-based; details: Ramos B-cell line stimulated with IL-4; CD23 expression by FACS; read-out: IC50, Example 41
Method in brief: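 Compound effect on IL-4-driven JAK1/JAK3 signalling is gauged as CD23 surface expression, measured by FACS after 20-24 h of stimulation with IL-4 at 50 units/mL final. A 1 h compound pre-treatment at 37 °C precedes stimulation, and IC50 is derived from the results.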

Primary human T-cells = test: Primary Human T-Cell Proliferation Assay Stimulated with IL-2 (CellTiter-Glo); assay type: cell-based; details: primary human T-cell proliferation stimulated with IL-2; read-out: IC50, Example 42
Method in brief: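 IC50 derived from CellTiter-Glo ATP signal after 72 hours of IL-2-driven proliferation at 37° C. Cells: primary human T-cells from blood, stimulated beforehand 3-4 days on anti-CD3/anti-CD28 with IL-2, then rested from IL-2 before compound exposure in duplicate; IL-2-free wells served as unstimulated control.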

IC50 [1]	Compound	IC50 (Primary human T-cells)
282 nM	CCN(CC)CCNS(=O)(=O)c1ccc(Nc2ncc(F)c(Nc3cccc(OCc4nc(C)no4)c3)n2)cc1 [Compound I-256, N2-[4-(2-N,N-Diethylaminoethyl)aminosulfonylphenyl)-5-fluoro-N4-[3-(3-methyl-1,2,4-oxadiazol-5-yl)methyleneoxyphenyl]-2,4-pyrimidinediamine]	38200 nM
285 nM	CCN(CC)CCNS(=O)(=O)c1cccc(Nc2ncc(F)c(Nc3ccc(OCc4cc(C)on4)c(C)c3)n2)c1 [Compound I-244, N2-[3-(2-N,N-Diethylaminoethyl)aminosulfonylphenyl)-5-fluoro-N4-[3-methyl-4-(5-methylisoxazol-3-yl)methyleneoxyphenyl]-2,4-pyrimidinediamine]	1410 nM
182 nM	Cc1ccc(Nc2ncc(F)c(Nc3cccc(OC4CCCN(C)C4)c3)n2)cc1S(N)(=O)=O (racemic) [II-1, Racemic N2-(3-aminosulfonyl-4-methylphenyl)-5-fluoro-N4-{3-[(1-methylpiperidin-3-yl)oxy]phenyl}-2,4-pyrimidinediamine]	1140 nM
148 nM	Cc1cc(COc2ccc(Nc3nc(Nc4ccc(F)c(S(N)(=O)=O)c4)ncc3F)cc2)no1 [Compound I-233, N2-(3-Aminosulfonyl-4-fluorophenyl)-5-fluoro-N4-[4-(5-methylisoxazol-3-yl)methyleneoxyphenyl]-2,4-pyrimidinediamine]	377 nM
27.9 nM	Cc1noc(COc2ccc(Nc3nc(Nc4ccc(C)c(S(N)(=O)=O)c4)ncc3F)cc2)n1 [Compound I-259, N2-(3-Aminosulfonyl-4-methylphenyl)-5-fluoro-N4-[4-(3-methyl-1,2,4-oxadiazol-5-yl)methyleneoxyphenyl]-2,4-pyrimidinediamine]	65.8 nM
